Columns and labels:
B16-mhgp100 tumors [1] = experiment: Anti-tumor efficacy in B16 melanoma model, citrate vs potassium hydroxycitrate; format: in vivo, mice; settings: T cells cultured in potassium hydroxycitrate or citrate; FIGS. 17A-17C
[2] = test system: IFN-γ locus in CD8+ Pmel-1 cells; experiment: ChIP-PCR of H3K9Ac deposition at the IFN-γ locus; format: cell-based, mouse; settings: vs negative control; FIG. 2C
Description: Chromatin Immunoprecipitations were performed with validated antibodies from previous literatures (Gray et al., Immunity, 46(4): 596-608 (2017); Peng et al., Science, 354(6311): 481-484 (2016)) and protocols were followed according to manufacturing instructions provided by the CHIP-IT express shearing kit (Active Motif, Carlsbad, CA). Briefly, CD8+ Pmel-1 cells were fixed with formaldehyde for 7 minutes on a rocking platform and quenched with 1× of Glycine. Cells were pelleted with phenylmethylsulfonyl fluoride (PMSF) and protein inhibition cocktail and stored at −80 prior to cell lysis. Thawed cells were suspended in ice cold lysis buffer to obtain nuclei material. Nuclei material was sheared by incubating with enzymatic cocktail for 15 minutes at 37° C. Sheared chromatin with a total of 7.5 μg/sample was incubated with protein G magnetic beads with anti-H3K27Ac (Abcam Cat #ab4729), H3k9Ac (Abcam Cat #ab4441) (Abcam, Cambridge, UK) and anti IgG at 4° C. overnight. Magnetic beads were washed with buffers to remove unbound immune complexes and eluted with 150 μl of elution buffer. […] Concentration of the ChIP DNA was measured with high sensitive DNA assay protocol on tape station to normalize the DNA. Samples were sequenced on illumina Next seq system (Illumina, San Diego, CA) with 75 bp reads in single end mode with approximately 40M reads per sample. […]

T cells [3] = experiment: Acetate rescue: CD62L and IFN-γ by FACS; format: cell-based, mouse; settings: control 49.4
Excerpt: (§1) For all flow cytometry experiments, T cells were stained with a fixable live/dead stain (Invitrogen, Waltham, MA) in phosphate buffered saline (PBS) followed by surface antibody staining in FACS buffer (PBS with 0.5% bovine serum albumin (BSA) and 0.1% sodium azide). For intracellular cytokine staining, cells were first stained for surface markers and later stained for intracellular molecules following fixation and permeabilization (BD CYTOFIX/CYTOPERM fixation/permeabilization solution kit). For phospho-staining, BD PHOSFLOW reagents (BD Biosciences) were used and protocols were carried out according to the manufacturer's protocols. After washing, cells were stained with phospho-antibodies purchased from Cell Signaling (Danvers, MA). […] All experiments were conducted on a BD FORTESSA flow cytometer (Becton Dickinson, Downers Grove, IL) and analyzed with FLOWJO software (TreeStar, Ashland, OR).
T cells were treated with a combination of potassium hydroxycitrate and acetate, potassium hydroxycitrate alone, or negative control. Expression of CD62L was measured by fluorescence-activated cell sorting (FACS).
IFN-γ secretion was also measured by FACS (Table D) and quantified (FIG. 13) following treatment with control, potassium hydroxycitrate alone, or a combination of potassium hydroxycitrate and acetate.

[4] = test system: adoptively transferred CD8+Ly5.1+ T cells; format: in vivo, mice; settings: challenge with vaccinia rhgp100 1×10^7 PFU; negative control 7.8
[5] = test system: transferred Ly5.1+ CD8+ T cells in mice bearing B16-mhgp100 tumors; experiment: Persistence of transferred T cells in spleen of tumor-bearing mice; format: in vivo
T cells [6] = experiment: Autophagy flux, GFP-mCherry-LC3b reporter, flow cytometry; format: cell-based, mouse
T cells [7] = experiment: Cytoplasmic citrate and AcCoA quantification in treated T cells; format: cell-based, mouse
Description: T cells (n=3) cultured in control or potassium hydroxycitrate conditions were collected and washed in PBS to perform the total and cytoplasmic AcCoA and citrate levels. Samples were homogenized in 1% TRITON X-100 nonionic surfactant, 20 mM Tris-HCl, pH=7.4, 150 mM NaCl on ice for 10 min (Sigma Acetyl-Coenzyme A Assay Kit—MAK039) or citrate buffer (Sigma Citrate Assay Kit—MAK057) (Sigma, St. Louis, MO) as per the directions provided in the kit. For total AcCoA quantification, pelleted cells were extracted using 80% methanol or 5% sulfo-salicylic acid with 50 μM DTT. After cell lysis, samples were deproteinized with a 10 kDa molecular weight cut-off (MWCO) spin filter prior to the assay. AcCoA concentrations were interpolated with AcCoA standards using fluorometric assay (Ex=535, Em=587) or by mass spectrometry. Citrate concentrations were interpolated with citrate standards using colorimetric assay (570 nm). […]
Cytoplasmic citrate and cytoplasmic AcCoA were quantified following treatment of cells with potassium hydroxycitrate or negative control. […]
Cytoplasmic AcCoA was quantified following treatment with a combination of potassium hydroxycitrate and 5 mM acetate, potassium hydroxycitrate only, or control (neither potassium hydroxycitrate nor acetate) (FIG. 14).

Human CD8+ TILs = experiment: CD62L expression of human CD8+ TILs during rapid expansion, FACS; format: cell-based; settings: 5 mM
Description: Human CD8^+ TILs from various histologies were cultured in the presence or absence (control) of potassium hydroxycitrate (5 mM). In brief, TILs from fresh tumor digests were subjected with 30 ng ml^−1 OKT3 to a rapid expansion protocol (REP) using irradiated peripheral blood mononuclear cells (PBMC) grown cultured in 3,000 IU ml-1 IL-2 in RPMI 1640 and AIM-V, supplemented with 5% in-house human serum 100 μg ml^−1 streptomycin and 100 μg ml^−1 penicillin, 2 mM 1-glutamine, 10 μg ml^−1 gentamicin, for approximately 14 days.
Expression of CD62L was measured by FACS. […] Specifically, FIG. 20 presents representative FACS data for human TIL showing relatively higher expression of the lymphoid homing marker CD62L during TIL expansion for potassium hydroxycitrate cultured TILs as compared to control TILs ([…], 14% increase). FIG. 21 is a graph showing the percentages of cells (% of maximum) expressing CD62L following treatment with negative control or potassium hydroxycitrate. FIGS. 22A and 22B show the quantification of the data shown in FIG. 21 for CD45RO^+ CD62L^+ for two patient samples (Patient A and Patient B).

CD8+ Pmel-1 T cells [8] = experiment: Annexin V/PI FACS of live, apoptotic and necrotic populations; format: cell-based, mouse
Description: (§2) CD8+ Pmel-1 T cells were activated with mhgp100 peptide for 5 days in the presence of 5 mM potassium hydroxycitrate followed by secondary stimulation with anti-CD3 (1 μg/ml) and anti-CD28 (1 μg/ml) (FIG. 7A). Cells were analyzed for surface markers or intracellular cytokines on day 10.
Representative FACS data defining the percentages of live (Annexin V−PI−), apoptotic (Annexin V+PI−) and necrotic populations (Annexin V+PI+) cultured in control or potassium hydroxycitrate are provided in Table C and FIG. 8.

human TIL = experiment: TNF and IL-2 expression of human TIL by FACS; format: cell-based; settings: 2.5 or 5 mM, vs vehicle
Description: Human TIL were cultured without stimulation, in vehicle, or in potassium hydroxycitrate (2.5 or 5 mM). The cells were analyzed for the expression of tumor necrosis factor (TNF) and IL-2.

B16-mhgp100 tumors [9] = experiment: Anti-tumor efficacy after adoptive transfer of treated Pmel-1 T cells; format: in vivo, mice; settings: FIGS. 5, 6, 11
CD8+ Pmel-1 T cells [10] = experiment: Flow cytometry of CD62L/CD44 and IFN-γ production; format: cell-based, mouse; settings: 5 mM
Description: CD8^+ T cells from Pmel-1 mice were stimulated in vitro with 1 μM hgp10025-33 peptide for 5 days and secondary restimulation was done with plate-bound anti-CD3 (1 μg/ml; BD Biosciences, Franklin Lakes, NJ) and soluble anti-CD28 (1 μg/ml; BD Biosciences) and expanded in culture medium containing 60 IU of IL-2. The conditions control/potassium hydroxycitrate (FIG. 7) were activated in the above conditions for a total of 10 days. For measuring T cell effector function, these cells were stimulated on day 10 in the indicated conditions for 5 h with anti-CD3 and -CD28 without IL-2 in the presence of brefeldin A and monesin (BD Biosciences).
as §1, §2
Representative flow cytometry analysis and quantification of CD62L vs CD44 positive cells and IFN-γ+ production in T cells cultured in control or 2-hydroxy citrate (potassium hydroxycitrate (5 mM)) are shown in Table B and FIGS. 7A and 7B. […]

T cells [11] = experiment: Autophagy by immunoblot, LC3II/LC3I ratio; format: cell-based, mouse; settings: acetate 5 mM where present, control 0.7
Description: Ablation of autophagy was measured by immunoblot following treatment with a combination of potassium hydroxycitrate and 5 mM acetate, potassium hydroxycitrate only, or control (neither potassium hydroxycitrate nor acetate). Beta-actin was used as a control. Quantification of the autophagy flux was represented by ratio of LC3II/LC3I intensities.

Structure (SMILES): O=C(O)CC(O)(CC(=O)O)C(=O)O [Citrate, reference compound]
- antitumor efficacy in a B16 melanoma model (B16-mhgp100 tumors [1]): but not citrate improves antitumor efficacy

Structure (SMILES): O=C([O-])CC(O)(C(=O)[O-])C(O)C(=O)[O-].[K+].[K+].[K+] (stereo not shown) [Potassium hydroxycitrate, potassium hydroxycitrate]
- H3K9Ac deposition at the IFN-γ locus (ChIP-PCR quantification) [2]: reduced H3K9Ac deposition
- percentage of IFN-γ positive cells (T cells [3]): 18.2%
- % Ly5.1+ CD8+ T cells, recall response [4]: 25.9%
- in vivo persistence following adoptive transfer ([5]; T cells cultured in potassium hydroxycitrate vs control): enhanced in vivo persistence
- percentage Ly5.1+ CD8+ T cells in spleen ([5]; day 7 after transfer, tumor-bearing mice, negative control 9.2): 46.3%
- percentage of mCherry positive cells which are GFP− (T cells [6]; flow cytometry, loss of GFP = autophagic flux, negative control 12.1): 33.2%
- percentage of mCherry positive cells which are GFP+ (T cells [6]; flow cytometry, negative control 83.0): 60.8%
- autophagy (T cells [6]; vs negative control): Enhanced autophagy
- cytoplasmic citrate (T cells [7]; T cells treated with potassium hydroxycitrate (ACLY inhibitor) vs negative control, FIG. 2A): citrate accumulation
- cytoplasmic AcCoA (T cells [7]; T cells treated with potassium hydroxycitrate vs negative control, FIG. 2B): depletion of cytoplasmic AcCoA
- CD62L expression, representative FACS data (Human CD8+ TILs; about 14 days REP, control 56.2, FIG. 20): 66.6
- expression of the lymphoid homing marker CD62L during TIL expansion (Human CD8+ TILs; vs control): maintained relatively higher expression
- increase of CD62L expression vs control TILs (Human CD8+ TILs; FIG. 20): 14%
- percentage of cells PI+ Annexin+ (necrotic) (CD8+ Pmel-1 T cells [8]; negative control 9.74): 2.4%
- percentage of cells PI− Annexin+ (apoptotic) (CD8+ Pmel-1 T cells [8]; negative control 18.1): 1.6%
- percentage of cells PI− Annexin− (live) (CD8+ Pmel-1 T cells [8]; negative control 71.0): 95.2%
- cellular apoptosis (CD8+ Pmel-1 T cells [8]; vs control): reduced cellular apoptosis
- poly-functionality (TNF and IL-2 expression) (human TIL): improves poly-functionality of human TIL
- antitumor efficacy (B16-mhgp100 tumors [9]): improved antitumor efficacy
- percentage of cells CD44+ CD62L+ (CD8+ Pmel-1 T cells [10]; day 10, negative control 3.5): 30.7%
- percentage of cells IFN-γ+ (CD8+ Pmel-1 T cells [10]; day 10, negative control 59.3): 14.2%
- effector differentiation (CD8+ Pmel-1 T cells [10]; vs control): blockade of effector differentiation
- autophagy flux, ratio of LC3II/LC3I intensities (T cells [11]): 2.1
- antitumor efficacy in a B16 melanoma model (B16-mhgp100 tumors [1]): improves antitumor efficacy

— patent US12415845B2 (priority 2018, dated 2025)
